≈ marks a conversion by molar mass, not a printed value. Entries after “also recorded” stand apart in the source; their conditions may differ.

The subject of series [1] is mice. Put plainly: traction (motor incoordination). Type of series: in vivo, mice (EVIC CEBA strain).
Series [2] concerns rats. Kind of series: behaviour in rats. The format is in vivo. As to the method: (§1) The following text summarises a part of the results of the tests which were carried out with the products according to the invention, these products (unless otherwise stated) being administered intraperitoneally, in suspension in a gum solution (gum arabic), in a volume of 20 ml/kg in the case of mice and of 5 ml/kg in the case of rats.

In series [3] the test system is mice. Kind of series: toxicity (isolated mice, intraperitoneal). Type of series: in vivo. As to the method:
as §1

For series [4], the system named is mice. Put plainly: interaction with oxotremorine (temperature, trembling, peripheral cholinergic symptoms). The format is in vivo. Conditions: mice, i.p.
The test system of series [5] is mice. Kind of series: motility reduced by habituation to a cage (residual motility). Type of series: in vivo. The following applies: i.p. The gist of the method: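 Mice habituated 18 hours in actimeters received compound intraperitoneally as a gum arabic suspension (20 ml/kg) and were returned to their cages. Motility was recorded for 30 minutes starting half an hour after dosing, with 6 animals per dose and 12 controls.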

In series [6] the test system is mice. Kind of series: motility reduced by hypoxia treatment (motor recovery). The format is in vivo. Conditions: mice, i.p.
Series [7] has as its system mice. Put plainly: four-plate test. The format is in vivo, mice (EVIC CEBA strain). Conditions: i.p.
The subject of series [8] is mice. Put plainly: inter-group aggressiveness (number of fights). The format is in vivo. A digest of the protocol: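 Mice were housed either three weeks (CRL 40,373) or 18 days (CRL 40,385, groups of 3) on each side of an opaque cage partition. Fights were counted over 15 min.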
Another series deals with central nervous system. Put plainly: psychopharmacological study / behaviour. Conditions: for sedation / sedative effect: high dose(s). Type of series: in vivo, mice.
Series [9] deals with mice. Kind of series: electrical shock (convulsing effects). Conditions: i.p. The format is in vivo, mice (EVIC CEBA strain). The method, then:
as §1
The test is carried out on batches of 10 sensitive mice (EVIC CEBA strain), 30 minutes after the administration of CRL 40,373.
Batches of 10 mice are subjected to the test thirty minutes after having received CRL 40,385.

Series [10] has as its system rats. Put plainly: interaction with amphetamine (stereotypies in rats). The format is in vivo. Conditions: rats, i.p. The gist of the method:
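Test products given intraperitoneally as a gum arabic suspension (5 ml/kg in rats). Thirty minutes later, amphetamine 2 mg/kg is injected intraperitoneally; 6 animals per dose.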

The test system of series [11] is rats. Put plainly: interaction with apomorphine (stereotype behaviour in rats). Type of series: in vivo. Conditions: rats, i.p. The gist of the method: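 Rats in groups of six received the test compound intraperitoneally as a gum arabic suspension at 5 ml/kg. Thirty minutes later they were given apomorphine 0.5 mg/kg subcutaneously, and stereotyped behaviour was scored.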

Series [12] relates to mice. Kind of series: spontaneous motility (actimeter). The format is in vivo. The following applies: mice. The gist of the method:
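Compounds given i.p. as a gum arabic suspension at 20 ml/kg. Thirty minutes after dosing, mice (6 per dose, 12 controls) went into an actimeter and motility was recorded for half an hour.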

Series [13] relates to mice. Kind of series: interaction with apomorphine in mice. The format is in vivo.
Series [14] deals with mice. Kind of series: interaction with reserpine (hypothermia, ptosis). The format is in vivo. The following applies: i.p.
A short description of series [15]: solubility in distilled water. The format is physicochemical. Conditions: read-out: solubility limit.
For a further series, the system named is man. Kind of series: clinical use in man. The format is in vivo. Conditions: pill 20 mg, 3 to 4 pills per day.

On to `CC(C(=O)NO)[S+]([O-])Cc1ccc(Cl)cc1` (stereo not shown) [CRL 40,466, 2-(p-Chlorobenzylsulphinyl)-propionohydroxamic acid], for which the motor incapacity result with mice [1] (high dose) is on record as “motor incapacity”. Further, the excitation result in the series on rats [2] is “excitation, with hyper-reactivity”; in the series with central nervous system (mice, low dose), “excitation, with hyper-reactivity”. Moreover, in the series with mice [3] (mice, i.p., 256, 512 and 1,024 mg/kg), the mortality result is reported as “does not cause any mortality whatsoever”. The oxotremorine-induced trembling entry in the series on mice [4] is given as “reduces the trembling movements due to oxotremorine”. In addition, the “temperature (oxotremorine-induced hypothermia)” value in the series with mice [4] is “does not oppose hypothermia induced by oxotremorine”; with mice [4] (high doses), “aggravates the hypothermia”. Further, in the series with mice [5], the “motility reduced by habituation to the cage” value was “moderate increase in the motility reduced by habituation”. Besides, in the series on mice [6], the “motor recovery after hypoxia/anoxia by pressure reduction” value is on record as “moderate increase in the motility reduced by habituation or by the effects of hypoxia”. Also, in the series with mice [7] (mice), the “number of incorrect moves (four-plate test)” value was “moderate (but significant) increase in the number of incorrect moves”. The aggressiveness result in the series with mice [8] (low dose) is “increase in aggressiveness”; in the series on mice [8] (mice, i.p., large/high dose), “reduction of aggressiveness”. The reactivity result in the series with central nervous system (mice, high dose) was “hypo-reactivity”. Further, in the series with central nervous system (mouse, in vivo), the “body temperature effect (product alone)” value is recorded as “hypothermia”. Further, in the series on central nervous system (mouse, in vivo), the “psychopharmacological profile / conclusion” value is “effects of the sedative type and effects of the psychostimulant type; also recorded: sedation in mice”. Besides, the “ptosis (product alone)” value in the series on central nervous system (mouse, in vivo) was “ptosis”. The “convulsing effects of the electric shock” value in the series on mice [9] (mice) is on record as “antagonism to convulsions caused by electric shock”. For the same molecule, in the series with rats [10], the amphetamine-induced stereotypies entry is “does not markedly alter the stereotypies induced in rats by apomorphine and amphetamine”. Moreover, in the series on rats [11], the apomorphine-induced stereotypies entry is “does not markedly alter the stereotypies induced in rats by apomorphine”. For the same molecule, the spontaneous motility entry with mice [12] (high dose) is given as “reduction in spontaneous motility”; in the series with mice [12] (i.p., 8 mg/kg) it was “appears to exhibit a stimulant effect on the motility”; in the series on mice [12] (i.p., 512 mg/kg) it was “depresses spontaneous motility in mice”.

With `O=C(CNc1ccc(Cl)c(Cl)c1)NO` [CRL 40,500, (3,4-Dichloroanilino)-acetohydroxamic acid], the mortality entry in the series with mice [3] (i.p., 256 mg/kg) is given as “the mice survive”. For the same molecule, the “average time to death” value in the series on mice [3] (i.p., 512 mg/kg) stood at 18 h. Moreover, the relative toxicity entry in the series with mice [3] (mouse, in vivo, ip) is “more toxic than the products studied above”. The symptoms / behaviour entry in the series on mice [3] (mouse, in vivo, ip, 256 mg/kg) is “the symptoms are identical”. In addition, in the series on mice [4], the “temperature (oxotremorine-induced hypothermia)” value was “aggravation of the hypothermia due to reserpine and to oxotremorine”. Moreover, in the series on mice [4] (128 and 32 mg/kg), the “peripheral effects of oxotremorine” value is on record as “increases the peripheral effects of oxotremorine”. The “motility reduced by habituation to the cage” value with mice [5] (128 mg/kg) is recorded as “moderate resumption of the motor activity of mice habituated to their cage”. Moreover, in the series on mice [6], the “motor recovery after hypoxia/anoxia by pressure reduction” value is given as “does not cause a marked improvement in the motor recovery of mice”. The aggressiveness entry with mice [8] (low dose) was “reduction of aggressiveness which is substantial at low doses”. The inter-group aggressiveness entry in the series on mice [8] (mice, i.p., all the doses studied) is “reduces the inter-group aggressiveness of mice”; with mice [8] (mice, i.p., high doses (64 and 128 mg/kg)) it was “a reduction of the effect is observed”; in the series on mice [8] (mice, i.p., lowest dose used (8 mg/kg)), “present with considerable intensity”. Also, the “sedation / sedative effect” value with central nervous system is reported as “moderate sedation at high doses”. The apomorphine-induced stereotypies result in the series with mice [13] and in the series on rats [11] was “does not alter the stereotypies induced by apomorphine” each time. For the same molecule, the amphetamine-induced stereotypies result with rats [10] was “does not alter the stereotypies induced by apomorphine (rats and mice) and by amphetamine (rats)”. Besides, the reserpine-induced hypothermia entry in the series with mice [14] is “aggravation of the hypothermia due to reserpine”. The spontaneous motility result in the series on mice [12] (i.p., 32 and 128 mg/kg) is on record as “moderately reduces the spontaneous motility of mice”.

Turning to `O=C(CC(=O)Nc1c(Cl)cccc1Cl)NO` [CRL 40,510, 2,6-Dichlorophenyl-carbamoyl-acetohydroxamic acid], the “motor incoordination / incapacity” value with mice [1] (i.p.) is “absence of motor incapacity”. Moreover, the “LD-O (maximum non-lethal dose)” value in the series on mice [3] (mice, i.p.) is given as “greater than 1,024 mg/kg”. Also, in the series with mice [4], the oxotremorine-induced trembling entry is recorded as “moderately antagonistic to the trembling movements caused by oxotremorine”. Also, in series [15], the solubility (commonly the concentration that dissolves in the medium under given conditions) was about 13 mg/mL (≈ 49.4 mM). For the same molecule, the “anxiolytic effect (four plate test)” value with mice [7] (also gastric administration) is “effects of the anxiolytic type”. The “sedation / sedative effect” value in the series with central nervous system was “moderate sedative effect”. In the series with central nervous system (mouse, in vivo), the “psychopharmacological profile / conclusion” value was “comes close to the benzodiazepines in respect of anxiolytic and anti-convulsive activities; also recorded: relative resistance to sedation”. Further, the anti-convulsive effect result in the series with mice [9] (also gastric administration) was “of the anti-convulsive type”. Further, in the series on man, the clinical result was “good results in man as an anxiolytic sedative agent”.
